In ChEMBL document CHEMBL1201862, “PubChem BioAssay data set” (2004):
The source made the active and inactive calls.

Columns and labels:
[1] = molecular target: T1, Sentrin-specific protease 8 (Homo sapiens, UniProt Q96LD8); assay: SENP8 protease inhibitors, SAR follow-up, biochemical, luminescence, set 2 (AID 588601); type: functional
T1 sequence (Q96LD8 whole entry): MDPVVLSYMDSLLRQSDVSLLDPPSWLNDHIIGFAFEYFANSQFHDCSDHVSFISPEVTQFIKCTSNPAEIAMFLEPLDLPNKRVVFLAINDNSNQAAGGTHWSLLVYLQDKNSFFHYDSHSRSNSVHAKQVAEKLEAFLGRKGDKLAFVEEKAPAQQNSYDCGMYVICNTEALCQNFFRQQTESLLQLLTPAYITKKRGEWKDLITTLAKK

[2] = molecular target: T2, Sentrin-specific protease 7 (Homo sapiens, UniProt Q9BQF6); assay: SENP7 protease inhibitors, SAR follow-up, biochemical, luminescence, set 2 (AID 588600); type: functional
T2 sequence (Q9BQF6 whole entry): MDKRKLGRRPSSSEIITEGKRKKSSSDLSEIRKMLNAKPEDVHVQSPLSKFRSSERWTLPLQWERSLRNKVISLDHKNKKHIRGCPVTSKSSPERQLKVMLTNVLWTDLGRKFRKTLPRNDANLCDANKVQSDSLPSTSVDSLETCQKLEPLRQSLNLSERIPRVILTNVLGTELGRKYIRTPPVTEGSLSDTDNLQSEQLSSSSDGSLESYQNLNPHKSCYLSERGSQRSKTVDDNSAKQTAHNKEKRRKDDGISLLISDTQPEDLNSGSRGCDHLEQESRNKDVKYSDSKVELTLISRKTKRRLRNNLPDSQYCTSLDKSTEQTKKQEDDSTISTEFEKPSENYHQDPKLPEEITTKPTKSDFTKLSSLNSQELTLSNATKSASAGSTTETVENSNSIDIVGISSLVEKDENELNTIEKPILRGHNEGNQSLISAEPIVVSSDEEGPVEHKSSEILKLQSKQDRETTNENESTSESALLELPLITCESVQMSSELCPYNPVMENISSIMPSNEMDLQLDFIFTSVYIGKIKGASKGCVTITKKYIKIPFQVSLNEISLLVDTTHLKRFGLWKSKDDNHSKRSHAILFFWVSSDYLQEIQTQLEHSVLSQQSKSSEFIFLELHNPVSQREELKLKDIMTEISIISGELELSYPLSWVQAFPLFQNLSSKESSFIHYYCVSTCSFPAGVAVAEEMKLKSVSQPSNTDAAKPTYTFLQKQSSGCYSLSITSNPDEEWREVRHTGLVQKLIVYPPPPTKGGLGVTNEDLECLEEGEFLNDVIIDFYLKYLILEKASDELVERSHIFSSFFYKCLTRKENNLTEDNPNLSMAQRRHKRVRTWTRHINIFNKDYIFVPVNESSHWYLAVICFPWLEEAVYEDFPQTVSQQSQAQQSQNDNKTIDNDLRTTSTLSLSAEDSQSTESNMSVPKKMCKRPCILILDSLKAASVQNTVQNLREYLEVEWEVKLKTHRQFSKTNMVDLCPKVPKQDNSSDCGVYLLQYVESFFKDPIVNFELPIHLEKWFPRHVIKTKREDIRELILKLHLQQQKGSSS

Caspase-3 = molecular target: T3, Caspase-3 (Homo sapiens, UniProt P42574); assay: caspase-3 inhibitors as off-family protease, SAR follow-up, selectivity assay for SENP protease inhibitor project, biochemical, luminescence, set 2 (AID 588599); type: functional
T3 sequence (P42574 whole entry): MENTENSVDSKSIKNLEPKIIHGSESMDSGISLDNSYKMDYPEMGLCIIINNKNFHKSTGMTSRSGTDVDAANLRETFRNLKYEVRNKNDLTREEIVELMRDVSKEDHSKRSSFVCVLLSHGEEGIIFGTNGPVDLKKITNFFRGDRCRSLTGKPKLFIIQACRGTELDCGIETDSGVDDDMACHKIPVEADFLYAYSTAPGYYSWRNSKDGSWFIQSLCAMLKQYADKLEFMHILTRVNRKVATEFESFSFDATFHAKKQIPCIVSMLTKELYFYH

[3] = molecular target: T4, Sentrin-specific protease 6 (Homo sapiens, UniProt Q9GZR1); assay: SENP6 protease inhibitors, SAR follow-up, biochemical, luminescence, set 2 (AID 588598); type: functional
T4 sequence (Q9GZR1 whole entry): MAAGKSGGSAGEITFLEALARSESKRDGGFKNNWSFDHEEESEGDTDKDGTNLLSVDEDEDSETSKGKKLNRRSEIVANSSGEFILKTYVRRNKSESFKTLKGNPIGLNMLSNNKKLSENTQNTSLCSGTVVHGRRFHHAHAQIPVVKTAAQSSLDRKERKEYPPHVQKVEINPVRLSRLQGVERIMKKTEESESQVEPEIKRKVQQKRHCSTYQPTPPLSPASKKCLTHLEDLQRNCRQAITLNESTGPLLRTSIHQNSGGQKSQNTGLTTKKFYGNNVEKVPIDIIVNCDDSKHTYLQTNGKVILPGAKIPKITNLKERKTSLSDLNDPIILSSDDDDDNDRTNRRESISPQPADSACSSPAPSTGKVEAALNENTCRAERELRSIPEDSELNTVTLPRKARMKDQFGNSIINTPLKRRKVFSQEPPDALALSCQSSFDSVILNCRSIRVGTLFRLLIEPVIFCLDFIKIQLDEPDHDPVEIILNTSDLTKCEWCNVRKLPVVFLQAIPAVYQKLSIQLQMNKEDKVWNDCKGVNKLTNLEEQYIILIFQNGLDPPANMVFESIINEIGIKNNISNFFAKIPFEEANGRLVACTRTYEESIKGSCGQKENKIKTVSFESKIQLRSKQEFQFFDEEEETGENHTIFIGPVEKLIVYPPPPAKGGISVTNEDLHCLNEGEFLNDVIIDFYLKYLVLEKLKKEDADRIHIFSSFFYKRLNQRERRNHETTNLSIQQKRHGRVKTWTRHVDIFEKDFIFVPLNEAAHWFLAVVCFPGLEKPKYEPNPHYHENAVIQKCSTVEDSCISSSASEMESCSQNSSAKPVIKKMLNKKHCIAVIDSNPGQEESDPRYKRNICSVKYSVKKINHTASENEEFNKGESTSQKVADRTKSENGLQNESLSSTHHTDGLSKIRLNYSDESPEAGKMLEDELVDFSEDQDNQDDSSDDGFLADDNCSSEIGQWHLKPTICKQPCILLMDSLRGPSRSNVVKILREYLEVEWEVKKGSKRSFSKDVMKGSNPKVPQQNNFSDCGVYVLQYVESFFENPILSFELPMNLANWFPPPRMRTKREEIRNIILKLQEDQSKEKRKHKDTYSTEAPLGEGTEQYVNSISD

[4] = inhibitors of intracellular T. cruzi replication, confirmation, NIH3T3 host cells, beta-gal luminescence (AID 2044); type: functional, cell-based;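 further: intracellular parasites grown in NIH/3T3 mouse fibroblasts as host cells; luminescent beta-galactosidase reporter signal from transgenic T. cruzi replicating inside host cells; inhibitors lower the luminescence signal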
[5] = molecular target: T5, Microphthalmia-associated transcription factor (Homo sapiens, UniProt O75030); assay: TRPM1 promoter luciferase signal decrease, dose response, MITF inhibitor project, cell-based, SK-MEL-5, cherry-picked, set 3 (AID 493073); type: functional
T5 sequence (O75030 whole entry): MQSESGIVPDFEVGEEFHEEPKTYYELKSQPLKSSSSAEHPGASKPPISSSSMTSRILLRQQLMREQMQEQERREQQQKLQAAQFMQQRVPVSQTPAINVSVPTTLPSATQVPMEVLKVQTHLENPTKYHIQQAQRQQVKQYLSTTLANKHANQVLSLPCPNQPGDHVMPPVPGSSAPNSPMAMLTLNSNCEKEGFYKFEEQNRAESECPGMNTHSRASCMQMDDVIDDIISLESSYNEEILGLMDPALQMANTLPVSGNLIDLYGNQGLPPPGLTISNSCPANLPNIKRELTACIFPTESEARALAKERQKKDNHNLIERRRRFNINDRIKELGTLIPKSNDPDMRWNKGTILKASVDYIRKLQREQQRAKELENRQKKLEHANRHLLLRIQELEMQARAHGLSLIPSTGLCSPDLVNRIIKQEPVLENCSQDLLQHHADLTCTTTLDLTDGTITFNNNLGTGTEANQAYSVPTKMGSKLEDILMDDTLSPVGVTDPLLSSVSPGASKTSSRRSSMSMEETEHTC

[6] = molecular target: V-type proton ATPase subunit c' (Saccharomyces cerevisiae S288c, UniProt P32842); assay: Dose Response with BCECF Assay for V-ATPase inhibitors that increase vacuolar pH, Powder Set 1.; type: functional; conditions: read-out: EC50_MICROM
[7] = cytotoxicity toward NIH3T3 fibroblasts, dose response, counter-screen, cell-based, ATP luminescence, mouse fibroblasts (AID 2010); type: functional;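 further: cells exposed to compound for about 90 hours before reading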
[8] = MC4R antagonists, dose response, counter-screen for LGR2 antagonist project, cell-based, plate reader, cherry pick (AID 743444); type: functional;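 further: transfected HEK 293 cells stimulated with alpha-MSH peptide; potency of inhibitors of the alpha-MSH evoked signal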
[9] = A549 cell cytotoxicity, dose response, cytotoxicity control, plate reader, cherry-pick, antagonist series (AID 743412); type: functional, cell-based
[10] = molecular target: T6, Polyadenylate-binding protein 1 (Homo sapiens, UniProt P11940); assay: PABP1 MLLE–PAM2 interaction inhibitors, dose response, miRNA deadenylation inhibitor project, biochemical, fluorescence polarization, Cy5-PAM2 peptide, secondary (AID 602260); type: functional; conditions: read-out: IC50_Mean
[11] = molecular target: T6, Polyadenylate-binding protein 1; assay: PABP1 MLLE–PAM2 binding inhibitor potency, dose response, biochemical, fluorescence polarization, FITC-PAM2 peptide (AID 602259); type: functional; conditions: read-out: IC50_Mean
[12] = molecular target: Transitional endoplasmic reticulum ATPase (Homo sapiens, UniProt P55072, C522A); assay: C522A mutant p97 ATPase inhibitors, dose response, counter-screen for p97 inhibitor project, biochemical, luminescence (AID 1544)
[13] = molecular target: Transitional endoplasmic reticulum ATPase (Homo sapiens, UniProt P55072); assay: p97 ATPase inhibitors, dose response, biochemical (AID 1534)
Vero = Vero cell cytotoxicity, cytotoxicity control for flavivirus capping enzyme inhibitors (AID 588742); type: functional; conditions: Chlorocebus sabaeus
[14] = molecular target: T7, Tyrosyl-DNA phosphodiesterase 2 (Homo sapiens, UniProt O95551); assay: human TDP2 enzyme inhibitors, dose response, biochemical, epi absorbance, IC50 (AID 743297)
T7 sequence (O95551 whole entry): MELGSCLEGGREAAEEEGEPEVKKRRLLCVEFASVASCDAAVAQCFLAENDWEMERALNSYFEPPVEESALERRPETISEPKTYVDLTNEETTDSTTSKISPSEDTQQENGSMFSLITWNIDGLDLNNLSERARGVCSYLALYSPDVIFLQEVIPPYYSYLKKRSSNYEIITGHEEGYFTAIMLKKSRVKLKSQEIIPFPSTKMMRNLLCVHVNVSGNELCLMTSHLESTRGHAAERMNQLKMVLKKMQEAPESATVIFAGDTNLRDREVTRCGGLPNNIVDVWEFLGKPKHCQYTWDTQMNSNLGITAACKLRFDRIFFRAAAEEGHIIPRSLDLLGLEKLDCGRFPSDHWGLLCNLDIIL

[15] = molecular target: Glucose-6-phosphate 1-dehydrogenase (Homo sapiens, UniProt P11413); assay: human G6PD enzyme inhibitors, dose response, selectivity assay for P. falciparum G6PD inhibitor project, biochemical, fluorescence (AID 504792); type: functional
[16] = molecular target: T8, Cystic fibrosis transmembrane conductance regulator/Golgi-associated PDZ and coiled-coil motif-containing protein (Homo sapiens, UniProt P13569+Q9HD26); assay: CAL PDZ peptide-binding inhibitors, dose response, biochemical, fluorescence polarization, Cerulean-tagged CAL PDZ, cherry-picks (AID 504773)
Genome polyprotein = Genome polyprotein (dengue virus type 2, UniProt P29990); assay: Dengue-2 NS5 methyltransferase inhibitors, primary screen, biochemical, confirmation dose response (AID 588689); type: functional
[17] = molecular target: T8, Cystic fibrosis transmembrane conductance regulator/Golgi-associated PDZ and coiled-coil motif-containing protein; assay: CAL PDZ domain peptide-binding inhibitors, dose response, biochemical, fluorescence polarization, Cer-tagged CAL PDZ, dry powder (AID 602253); type: functional
[18] = molecular target: Induced myeloid leukemia cell differentiation protein Mcl-1 (Homo sapiens, UniProt Q07820); type: functional
[19] = HepG2 cell cytotoxicity, dose response, cytotoxicity control, plate reader, cherry-pick, antagonist series (AID 743416); type: functional, cell-based
[20] = CAL PDZ domain peptide-binding inhibitors, dose response, biochemical, fluorescence polarization, untagged CAL PDZ, dry powder (AID 602255); type: functional
[21] = BHK-21 cell cytotoxicity, cytotoxicity control for flavivirus guanylyltransferase probe project, secondary screen (AID 624078); type: functional
Hexokinase HKDC1 = Hexokinase HKDC1 (Homo sapiens, UniProt Q2TB90); assay: HKDC1 hexokinase inhibitors, dose response, biochemical, W721R variant (AID 504729); type: functional
[22] = HEK293 cell cytotoxicity, dose response, cytotoxicity control, plate reader, cherry-picked samples (AID 743446); type: functional, cell-based

T6 sequence (P11940 whole entry): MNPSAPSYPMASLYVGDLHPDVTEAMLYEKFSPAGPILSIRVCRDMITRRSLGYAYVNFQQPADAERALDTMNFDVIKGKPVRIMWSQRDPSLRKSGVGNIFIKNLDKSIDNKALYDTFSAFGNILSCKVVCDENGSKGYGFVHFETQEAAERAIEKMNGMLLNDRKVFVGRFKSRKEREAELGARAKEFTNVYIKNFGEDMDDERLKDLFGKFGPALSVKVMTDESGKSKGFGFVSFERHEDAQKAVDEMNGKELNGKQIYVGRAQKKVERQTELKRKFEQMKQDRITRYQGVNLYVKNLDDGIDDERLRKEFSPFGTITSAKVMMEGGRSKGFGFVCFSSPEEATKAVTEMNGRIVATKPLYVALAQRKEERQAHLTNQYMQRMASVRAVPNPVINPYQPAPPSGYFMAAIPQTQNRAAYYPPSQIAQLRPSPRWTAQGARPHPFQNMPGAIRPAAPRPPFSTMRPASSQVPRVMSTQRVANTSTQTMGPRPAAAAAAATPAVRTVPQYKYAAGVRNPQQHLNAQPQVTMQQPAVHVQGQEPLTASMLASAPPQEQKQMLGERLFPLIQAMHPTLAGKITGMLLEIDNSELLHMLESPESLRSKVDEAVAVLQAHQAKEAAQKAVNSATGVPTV
T8 sequence (P13569 whole entry, other chains not shown): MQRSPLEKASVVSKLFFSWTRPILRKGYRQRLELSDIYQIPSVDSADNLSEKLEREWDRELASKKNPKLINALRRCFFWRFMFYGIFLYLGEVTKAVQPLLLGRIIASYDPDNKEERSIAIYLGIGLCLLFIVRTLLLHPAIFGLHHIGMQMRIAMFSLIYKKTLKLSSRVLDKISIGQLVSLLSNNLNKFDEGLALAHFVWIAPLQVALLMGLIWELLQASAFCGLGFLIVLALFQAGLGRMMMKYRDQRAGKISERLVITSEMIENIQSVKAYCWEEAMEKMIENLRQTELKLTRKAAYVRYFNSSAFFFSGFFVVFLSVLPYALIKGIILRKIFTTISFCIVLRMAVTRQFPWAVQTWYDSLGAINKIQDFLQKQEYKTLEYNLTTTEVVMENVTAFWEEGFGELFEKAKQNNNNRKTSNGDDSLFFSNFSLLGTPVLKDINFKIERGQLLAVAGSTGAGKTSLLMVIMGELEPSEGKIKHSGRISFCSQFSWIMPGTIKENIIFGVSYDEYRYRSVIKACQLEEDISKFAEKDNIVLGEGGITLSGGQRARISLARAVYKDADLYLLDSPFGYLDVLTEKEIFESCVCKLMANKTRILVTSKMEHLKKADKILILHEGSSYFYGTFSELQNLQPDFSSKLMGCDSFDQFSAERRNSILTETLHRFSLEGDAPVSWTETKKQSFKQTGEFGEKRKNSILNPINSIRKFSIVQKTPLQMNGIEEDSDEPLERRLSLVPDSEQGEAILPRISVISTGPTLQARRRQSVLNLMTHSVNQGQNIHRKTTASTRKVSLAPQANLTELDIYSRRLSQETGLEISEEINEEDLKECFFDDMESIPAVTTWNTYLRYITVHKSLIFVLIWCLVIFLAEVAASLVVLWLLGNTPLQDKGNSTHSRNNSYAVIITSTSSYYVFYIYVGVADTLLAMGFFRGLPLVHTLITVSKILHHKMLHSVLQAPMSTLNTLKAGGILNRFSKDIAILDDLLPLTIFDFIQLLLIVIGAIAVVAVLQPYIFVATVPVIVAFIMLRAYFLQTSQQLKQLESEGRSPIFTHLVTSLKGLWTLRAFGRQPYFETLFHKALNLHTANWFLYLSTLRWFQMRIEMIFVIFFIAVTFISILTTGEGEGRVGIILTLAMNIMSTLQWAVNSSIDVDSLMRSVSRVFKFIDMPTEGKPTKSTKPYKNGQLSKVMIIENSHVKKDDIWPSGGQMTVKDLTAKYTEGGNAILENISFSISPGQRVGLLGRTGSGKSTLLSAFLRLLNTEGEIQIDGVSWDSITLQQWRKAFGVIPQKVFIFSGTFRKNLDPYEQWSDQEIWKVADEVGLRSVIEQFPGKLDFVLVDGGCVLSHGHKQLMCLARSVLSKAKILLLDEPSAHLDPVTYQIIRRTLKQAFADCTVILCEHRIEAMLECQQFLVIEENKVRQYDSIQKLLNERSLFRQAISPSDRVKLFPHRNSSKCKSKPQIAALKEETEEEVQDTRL
Sequence of Glucose-6-phosphate 1-dehydrogenase (P11413 whole entry): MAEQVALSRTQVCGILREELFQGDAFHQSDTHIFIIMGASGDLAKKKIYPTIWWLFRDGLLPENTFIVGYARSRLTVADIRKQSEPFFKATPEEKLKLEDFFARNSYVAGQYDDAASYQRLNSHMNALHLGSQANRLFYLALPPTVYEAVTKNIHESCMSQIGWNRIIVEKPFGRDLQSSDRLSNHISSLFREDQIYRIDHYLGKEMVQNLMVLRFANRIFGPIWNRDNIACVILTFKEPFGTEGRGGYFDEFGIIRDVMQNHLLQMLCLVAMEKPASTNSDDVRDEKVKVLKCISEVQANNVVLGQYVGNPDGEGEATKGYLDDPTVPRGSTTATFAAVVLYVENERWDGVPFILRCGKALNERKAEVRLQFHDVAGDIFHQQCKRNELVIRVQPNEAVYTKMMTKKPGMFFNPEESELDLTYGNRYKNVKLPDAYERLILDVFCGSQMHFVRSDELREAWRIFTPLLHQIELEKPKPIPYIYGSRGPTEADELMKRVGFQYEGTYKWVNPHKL
Sequence of Hexokinase HKDC1 (Q2TB90 whole entry): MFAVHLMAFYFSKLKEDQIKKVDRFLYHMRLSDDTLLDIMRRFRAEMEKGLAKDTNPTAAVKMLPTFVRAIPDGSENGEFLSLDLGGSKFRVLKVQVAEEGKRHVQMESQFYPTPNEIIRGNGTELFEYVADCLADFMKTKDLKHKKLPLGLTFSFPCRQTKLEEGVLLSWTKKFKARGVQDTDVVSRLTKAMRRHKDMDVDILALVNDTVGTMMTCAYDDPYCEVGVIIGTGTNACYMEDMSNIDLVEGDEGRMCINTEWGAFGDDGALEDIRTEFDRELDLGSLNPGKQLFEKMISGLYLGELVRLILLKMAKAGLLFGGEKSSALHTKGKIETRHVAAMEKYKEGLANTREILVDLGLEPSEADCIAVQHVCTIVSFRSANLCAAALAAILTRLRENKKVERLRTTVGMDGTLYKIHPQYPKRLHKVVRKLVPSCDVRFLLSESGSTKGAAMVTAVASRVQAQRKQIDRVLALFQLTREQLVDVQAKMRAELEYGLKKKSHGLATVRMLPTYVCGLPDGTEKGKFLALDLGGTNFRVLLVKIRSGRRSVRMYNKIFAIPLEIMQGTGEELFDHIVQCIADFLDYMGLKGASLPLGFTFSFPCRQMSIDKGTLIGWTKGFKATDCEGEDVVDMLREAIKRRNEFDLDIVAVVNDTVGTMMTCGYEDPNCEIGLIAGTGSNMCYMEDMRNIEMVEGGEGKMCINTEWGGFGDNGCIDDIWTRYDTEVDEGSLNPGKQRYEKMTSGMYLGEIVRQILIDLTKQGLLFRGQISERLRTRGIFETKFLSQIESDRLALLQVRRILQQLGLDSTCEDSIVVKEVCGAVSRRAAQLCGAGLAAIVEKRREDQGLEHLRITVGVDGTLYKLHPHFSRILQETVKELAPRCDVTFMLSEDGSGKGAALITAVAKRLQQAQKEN
Sequence of Induced myeloid leukemia cell differentiation protein Mcl-1 (Q07820 whole entry): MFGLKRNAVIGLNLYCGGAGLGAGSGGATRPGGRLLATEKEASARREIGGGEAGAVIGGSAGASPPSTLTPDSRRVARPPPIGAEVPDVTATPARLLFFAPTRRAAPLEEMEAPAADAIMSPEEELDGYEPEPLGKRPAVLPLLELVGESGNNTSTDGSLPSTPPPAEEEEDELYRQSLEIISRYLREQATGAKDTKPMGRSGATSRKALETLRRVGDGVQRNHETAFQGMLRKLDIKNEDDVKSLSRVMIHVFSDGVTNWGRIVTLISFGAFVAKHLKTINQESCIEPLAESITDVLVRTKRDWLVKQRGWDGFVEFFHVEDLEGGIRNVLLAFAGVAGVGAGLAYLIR
Sequence of Genome polyprotein (P29990 2492-3391 limits assumed): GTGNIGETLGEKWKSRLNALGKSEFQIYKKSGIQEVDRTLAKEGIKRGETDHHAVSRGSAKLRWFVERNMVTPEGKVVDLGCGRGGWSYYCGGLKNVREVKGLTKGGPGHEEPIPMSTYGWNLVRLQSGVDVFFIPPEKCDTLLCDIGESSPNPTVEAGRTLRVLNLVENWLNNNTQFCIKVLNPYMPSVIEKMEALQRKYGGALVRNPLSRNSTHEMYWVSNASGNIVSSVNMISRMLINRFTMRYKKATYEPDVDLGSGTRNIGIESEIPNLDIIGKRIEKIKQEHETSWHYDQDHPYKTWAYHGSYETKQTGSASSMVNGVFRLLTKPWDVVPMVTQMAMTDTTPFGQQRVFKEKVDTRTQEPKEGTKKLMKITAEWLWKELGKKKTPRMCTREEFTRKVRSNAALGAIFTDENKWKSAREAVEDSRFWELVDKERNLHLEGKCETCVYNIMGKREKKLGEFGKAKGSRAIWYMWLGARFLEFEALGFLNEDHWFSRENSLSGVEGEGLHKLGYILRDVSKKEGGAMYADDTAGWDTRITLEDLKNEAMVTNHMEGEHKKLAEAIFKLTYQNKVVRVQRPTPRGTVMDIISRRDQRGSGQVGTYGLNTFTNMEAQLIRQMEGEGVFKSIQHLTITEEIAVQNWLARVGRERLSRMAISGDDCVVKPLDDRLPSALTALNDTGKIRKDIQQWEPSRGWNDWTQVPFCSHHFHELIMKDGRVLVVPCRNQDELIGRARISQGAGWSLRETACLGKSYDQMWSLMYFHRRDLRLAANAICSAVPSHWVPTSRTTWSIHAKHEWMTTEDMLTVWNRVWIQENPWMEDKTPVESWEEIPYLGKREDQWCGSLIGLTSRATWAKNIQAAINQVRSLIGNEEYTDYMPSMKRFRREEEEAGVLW
Sequence of V-type proton ATPase subunit c' (P32842 whole entry): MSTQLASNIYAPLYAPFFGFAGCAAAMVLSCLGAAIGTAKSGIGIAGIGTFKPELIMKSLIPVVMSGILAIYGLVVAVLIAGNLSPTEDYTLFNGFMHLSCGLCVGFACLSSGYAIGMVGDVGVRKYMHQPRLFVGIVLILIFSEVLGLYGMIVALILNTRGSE

## O=C(Cc1ccc(C(F)(F)F)cc1[N+](=O)[O-])N/N=C/c1c[nH]c2ccccc12
[1]
  IC50: > 99 µM (inactive)
[2]
  IC50: > 99 µM (inactive)
Caspase-3
  IC50: > 99 µM (inactive)
[3]
  IC50: > 99 µM (inactive)

## COc1ccc2nc(N3CCN(C(=O)c4ccc([N+](=O)[O-])o4)CC3)sc2c1
[4]
  EC50: 434 nM (active)
[5]
  AC50: 5.81 µM (active)
[6]
  EC50: 728 nM (active)
[7]
  EC50: 39.5 µM (active)

## O=C(O)CSc1cc(NS(=O)(=O)c2cccc([N+](=O)[O-])c2)c2ccccc2c1O
[8]
  AC50: 42.7 µM (active)
[9]
  AC50: 17.6 µM (active)
[10]
  IC50: > 66 µM (inactive)
[11]
  IC50: 35.5 µM (inactive)
[12]
  IC50: 17.4 µM (not active)
[13]
  IC50: > 50 µM (not active)
Vero
  CC50: 26.5 µM (active)
[14]
  IC50: 12.9 µM (inactive)
[15]
  IC50: 12.2 µM (active)
[16]
  AC50: 21.7 µM (active)
Genome polyprotein
  IC50: 5.4 µM (active)
[17]
  AC50: 44.7 µM (active)
[18]
  IC50: 13.6 µM (active)
[19]
  AC50: 12.1 µM (active)
[20]
  AC50: 52 µM (active)
[21]
  CC50: 7.45 µM (active)
Hexokinase HKDC1
  IC50: 5.62 µM (active)
[22]
  AC50: 21.2 µM (active)
